Our source for the Ki values is ChEMBL document CHEMBL1135231, “Syntheses and binding affinities of 6-nitroquipazine analogues for serotonin transporter. Part 2: 4-substituted 6-nitroquipazines” (Bioorg Med Chem Lett, 2002).

One assay deals with T1, Sodium-dependent serotonin transporter (Rattus norvegicus, UniProt P31652). The assay is described as follows: Compound was evaluated for its ability to displace [3H]citalopram binding to the rat cortical Serotonin transporter.
T1 sequence (P31652 whole entry): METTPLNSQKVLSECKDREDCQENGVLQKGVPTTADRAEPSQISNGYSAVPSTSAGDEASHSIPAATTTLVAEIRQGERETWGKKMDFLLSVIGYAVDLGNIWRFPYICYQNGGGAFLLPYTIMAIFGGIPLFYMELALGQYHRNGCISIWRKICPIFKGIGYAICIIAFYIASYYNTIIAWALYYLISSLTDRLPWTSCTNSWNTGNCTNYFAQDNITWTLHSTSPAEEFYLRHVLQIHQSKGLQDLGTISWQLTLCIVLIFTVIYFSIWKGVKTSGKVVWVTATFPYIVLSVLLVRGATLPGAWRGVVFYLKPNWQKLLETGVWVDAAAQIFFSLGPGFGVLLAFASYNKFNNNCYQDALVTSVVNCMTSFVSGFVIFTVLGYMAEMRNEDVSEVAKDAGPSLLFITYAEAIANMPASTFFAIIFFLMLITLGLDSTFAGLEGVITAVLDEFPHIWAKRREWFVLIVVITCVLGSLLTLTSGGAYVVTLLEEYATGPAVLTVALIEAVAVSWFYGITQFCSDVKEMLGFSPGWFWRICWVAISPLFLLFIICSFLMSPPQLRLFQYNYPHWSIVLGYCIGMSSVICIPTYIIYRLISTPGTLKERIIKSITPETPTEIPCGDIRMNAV
The molecule `O=CN1CCN(c2cc(Br)c3cc([N+](=O)[O-])ccc3n2)CC1` had an inhibitory constant (Ki) of 1.73 nM.

Another assay has as its target T1, Sodium-dependent serotonin transporter. The assay is described as follows: Displacement of [3H]citalopram from rat cortical serotonin transporter (SERT). A general note: Displacement assays read how much labelled ligand stays bound in the presence of the test substance.
Molecule `O=[N+]([O-])c1ccc2nc(N3CCNCC3)cc(Br)c2c1` showed a Ki of 0.37 nM.
Still for that read-out and setting: for `O=[N+]([O-])c1ccc2nc(N3CCNCC3)cc(-c3ccco3)c2c1` the value was 5.23 nM.
`O=[N+]([O-])c1ccc2nc(N3CCNCC3)cc(Cc3ccccc3)c2c1` registered a Ki of 127 nM.
Molecule `O=[N+]([O-])c1ccc2nc(N3CCNCC3)cc(I)c2c1` came in with a Ki of 1.73 nM.
Still for that read-out and setting: to `CN(C)Cc1ccccc1Sc1ccc(I)cc1N` belongs 0.013 nM; to `O=[N+]([O-])c1ccc2nc(N3CCNCC3)cc(Cl)c2c1`, 0.03 nM; to `C=Cc1cc(N2CCNCC2)nc2ccc([N+](=O)[O-])cc12`, 1.82 nM.
Still for that read-out and setting: to `O=[N+]([O-])c1ccc2nc(N3CCNCC3)cc(-c3ccccc3)c2c1` belongs 60 nM.
On the same count and under the same terms, to `O=[N+]([O-])c1ccc2nc(N3CCNCC3)cc(N3CCCC3)c2c1` belongs 61.1 nM; to `O=[N+]([O-])c1ccc2nc(N3CCNCC3)cc(-c3cccs3)c2c1`, 67.2 nM; to `C=CCc1cc(N2CCNCC2)nc2ccc([N+](=O)[O-])cc12`, 1.67 nM.

As usually defined, the Ki is the dissociation constant of the complex between target and ligand, obtained from inhibition or displacement. A low value points to a stronger hold on the target.
